Results: patent US20220267728A1, “ALLOGENIC CAR-T CELL THERAPY” (TX MEDIC AB, priority 2019, published 2022)

How the values were obtained:
[1] = tested on: T cell population (CD3+, CD4+, CD8+ T cells); experiment: Whole blood loop assay: flow cytometry of blood donor T cells (activation markers, viability); format: cell-based, human; details: groups with and without dextran sulfate; 60 min; FIGS. 3A to 3I
Text: (§1) Blood from healthy donors was taken in an open system and immediately mixed with test compounds (CD19-CAR T cells and dextran sulfate (Tikomed AB, Sweden, WO 2016/076780, referred to as IBsolvMIR in the figures). Autologous setting included CAR-T cells generated from the same donor that donated whole blood. In allogeneic setting, blood and CAR-T cells were not matched (from different donors). All materials in direct contact with whole blood were surface heparinized in accordance with the manufacturers protocol (Corline, Sweden). Whole blood (2 ml) was added to PVC-tubing, which, with a surface heparinized metal connector, formed a loop. The dextran sulfate (0.2 g/L) and CAR-T cells (0.5-5×10^6 cells) were added according to Table 1, and the loops were set to rotate on a wheel at 37° C. Blood aliquots were sampled, andeEthylenediaminetetraacetic acid (EDTA) was added to a final concentration of 10 mM to stop reactions at a given time-point. […]
(§2) The plasma samples were kept on ice, and plasma was collected by centrifugation at 2000×g at 4° C. for 20 minutes. […] Antibody master mix was incubated with whole blood for 30 min at 4° C., washed with PBS and analyzed using Cytoflex (Beckman Coulter).

monocyte population = experiment: Whole blood loop assay: CD11b on monocytes by flow cytometry; format: cell-based, human; details: addition of dextran sulfate to loops; FIG. 9A
Text: as §1, §2

whole blood = experiment: Human whole blood loop assay: ACT kaolin time and prothrombin/INR time (i-STAT cartridges); details: for Activated clotting time (ACT) / Prothrombin time (PT) / international normalized ration (INR): dextran sulfate 0.2 mg/ml, no CAR-T cells
Description: The objective of this Example was to investigate dextran sulfate in a human whole blood loop assay in combination with CAR-T cells. Cellular activation and viability and blood status was assessed after incubation in the human whole loop system with dextran sulfate with and without CAR-T cells.
Blood from healthy donors was taken in an open system and immediately mixed with test compounds (CD19-CAR T cells and dextran sulfate (Tikomed AB, Sweden, WO 2016/076780, referred to as IBsolvMIR in the figures). Autologous setting included CAR-T cells generated from the same donor that donated whole blood. In allogeneic setting, blood and CAR-T cells were not matched (from different donors). All materials in direct contact with whole blood were surface heparinized in accordance with the manufacturers protocol (Corline, Sweden). Whole blood (2 ml) was added to PVC-tubing, which, with a surface heparinized metal connector, formed a loop. The dextran sulfate (0.2 g/L) and CAR-T cells (0.5-5×10^6 cells) were added according to Table 1, and the loops were set to rotate on a wheel at 37° C. Blood aliquots were sampled, andeEthylenediaminetetraacetic acid (EDTA) was added to a final concentration of 10 mM to stop reactions at a given time-point. The automated hematology analyzer XP-300 or XN-350 (Sysmex) was used to assess blood cell count at different time points, while i-STAT cartridges (Abbott) were used to measure ACT kaolin time and prothrombin/INR time measurements.

CAR-T cell population = experiment: Whole blood loop assay: flow cytometry of CAR-T cell population (CAR marker, CD69, CD107a, viability); format: cell-based, human
Description: Peripheral blood mononuclear cells (PBMCs) were isolated from healthy donors using Lymphoprep (Progen), stored in −70° C. in freezing medium (10% dimethyl sulfoxide (DMSO), 90% fetal calf serum (FCS)) and cultured in RPMI-1640 supplemented with 10% FCS and 1% penicillin/streptomycin. The PBMCs were activated with 1 μg/ml OKT-3 (Biolegend) and 200 IU/ml IL-2 (Roche) for 1 day to selectively stimulate T cells. Retronectin plates (Takara) were prepare in advance (7 μg per well, overnight at 4° C.) and incubated twice with 500 μl concentrated CD19-CAR-encoding retrovirus (2G) or Mock retrovirus, previously described in Karlsson et al., Evaluation of Intracellular Signaling Downstream Chimeric Antigen Receptors, PLOS ONE 2015, 10(12):e0144787, for 30 min at 37° C. Activated cells were transduced with 3 ml concentrated CD19-CAR-encoding retrovirus or Mock retorvirus for 2 days at 37° C. in the presence of retronectin-coated plates and 100 IU IL-2. Cells were cultured with 100 IU/ml IL-2 and expanded for 2 weeks before analysis. For analysis of CD19-CAR expression, cells were stained with 0.5 μl of anti-CAR-Dylight649 (Jackson ImmunoResearch), washed with phosphate-buffered saline (PBS) and followed by surface labeling (CD3, CD8, CD4, TF). Flow cytometry analysis was performed using Cytoflex (Beckman Coulter). Cell count and cell viability was determined using trypan blue (T-20 Counter, Bio-Rad).
as §1, §2

C3a = experiment: Complement analysis (C3a) ELISA on plasma from whole blood loops; parameters: species or system human; details: data not shown
Description: The plasma samples were kept on ice, and plasma was collected by centrifugation at 2000×g at 4° C. for 20 minutes. The plasma was stored at −70° C. until the time of analysis. Complement analysis (C3a) was performed on plasma collected at various time points after assay start with ELISA kits from RayBiotech according to the manufacturers instructions. For experiments involving flow cytometry, blood samples were mixed with EDTA (final concentration of 10 mM), followed by the Fc block (BD Biosciences) and antibody master mix containing anti-human fluorochrome-labeled antibodies for surface staining (CD3, CD4, CD8, CD20, CD56, CD16, CD66b, CD14, BioLegend), including activation markers (CD107a, CD69, CD11b, Biolegend). Antibody master mix was incubated with whole blood for 30 min at 4° C., washed with PBS and analyzed using Cytoflex (Beckman Coulter).

[2] = tested on: B cell population (CD19+); experiment: Whole blood loop assay: flow cytometry of B cells (count, CD69, CD107a); format: cell-based, human
Text: as §1, §2

granulocyte population = experiment: Whole blood loop assay: CD11b on granulocytes by flow cytometry; format: cell-based, human; details: addition of dextran sulfate to loops; FIG. 9B
Text: as §1, §2

[3] = allogenic donor, time point 60 min
[4] = autologous donor, time point 10 min
[5] = autologous donor, time point 60 min

dextran sulfate
viability and activation of T cell population (blood donors CD3+, CD4+, CD8+ T cells) [1]: similar | expression of activation marker CD11 b on monocytes (monocyte population): decreased | coagulation measurements (ACT, PTT, INR) (whole blood; Table 2 and Table 3, autologous and allogenic donor): rise in all coagulation measurements | Activated clotting time (ACT) (whole blood; [3]): 356 s | Prothrombin time (PT) (whole blood; [3]): 30.7 s | international normalized ration (INR) (whole blood; [3]): 2.7 | Activated clotting time (ACT) (whole blood; [4]): 485 s | Prothrombin time (PT) (whole blood; [4]): 16.5 s | international normalized ration (INR) (whole blood; [4]): 1.4 | Prothrombin time (PT) (whole blood; [5]): 17.9 s | international normalized ration (INR) (whole blood; [5]): 1.5 | percentage of cells positive for the CAR-T cell specific marker in the T cell population (CAR-T cell population; allogenic donor, FIG. 4A): increased | viability of the CAR-T cells (CAR-T cell population; autologous donor, without or with dextran sulfate, FIG. 5C): ~60% | proportion of CD3+ CAR-T cells and CD8+ CAR-T cells, autologous versus allogenic groups (CAR-T cell population; when dextran sulfate was added): more similar | levels of activation markers (CD69, CD107a) in the allogenic CAR-T cell groups (CAR-T cell population; with dextran sulfate, compared with autologous CAR-T cell groups, FIGS. 5A, 5B and 6): more similar to the levels of activation markers in the autologous CAR-T cell groups | C3a levels (C3a; in co-administration with CAR-T cells): decreased levels of C3a | C3a levels (C3a; substance added alone, both donors): decreased levels of C3a | impact on CAR functionality ([2]; from B cell count and activation pattern): did not have any negative impact | B cell count and activation pattern ([2]; samples with or without dextran sulfate): similar | expression of activation marker CD11 b on granulocytes (granulocyte population): decreased
